Earlier results in patent publication US6670393B2, “Carbamate-based cationic lipids” (Promega Biosciences, Inc., priority 1995, dated 2003).

Tested on: cells

With `CC(C)CCC[C@@H](C)[C@H]1CC[C@H]2[C@@H]3CC=C4C[C@@H](OC(=O)NCCN(C)C)CC[C@]4(C)[C@H]3CC[C@]12C` [DC-Chol] as the molecule, how does the “toxicity to cells (reported)” value read?
The value was “lower toxicity”.

What about the “transfection (reported)” value of the same molecule?
Its value is “more efficient transfection”.
